Results on two compounds are retold here after patent US11679102B2, “Method for inhibiting virus infection and replication” (Chang Gung University, priority 2020, dated 2023).

Each structure is given as a SMILES string.

One assay has as its system CV-A6-infected RD cells. Format: cell-based, human. The note with it: wild-type RD cells pretreated 1 hour with ferrostatin-1 100 μM or troglitazone 20 μM, then CV-A6 m.o.i. 0.01 for 36 hours; vs mock-infected; FIG. 11 lower panel.
The test system of assay [1] is CV-A6. Format: cell-based, Coxsackie virus A6. Particulars: pretreated 1 hour at 0-120 μM, CV-A6 m.o.i. 0.01, 36 h.p.i.; FIG. 12.
The subject of assay [2] is HCoV-229E. Put plainly: Cell viability of HCoV-229E-infected LLC-MK2 cells (CellTiter96 Aqueous One Solution). Particulars: pretreated 1 hour at 0-120 μM, HCoV-229E m.o.i. 0.01, 7 d.p.i.; FIG. 13. Format: cell-based, human coronavirus 229E. As for the experimental part:
Wild-type RD cells and LLC-MK2 cells were seeded at a concentration of 2000 cells per well into respective wells of 96-well plates containing DMEM and 10% FBS. […] Mock-infected RD and LLC-MK2 cells served as control groups. CV-A6-infected and mock-infected RD cells, and HCoV-229E-infected and mock-infected LLC-MK2 cells were subjected to cell viability determination using CellTiter96 Aqueous One Solution Cell Proliferation Assay (Promega).

For assay [3], the system named is CV-A6. The class given is cell-based, Coxsackie virus A6. Particulars: pretreated 1 hour with ferrostatin-1 100 μM or troglitazone 20 μM; m.o.i. 0.01; 24, 36, 48 h.p.i.; FIG. 14.
Assay [4] relates to HCoV-229E. Description: Virus titer of HCoV-229E in infected LLC-MK2 cells (viral plaque assay). Particulars: pretreated 1 hour with ferrostatin-1 40 μM or troglitazone 10 μM; m.o.i. 0.01; 1, 2, 3 d.p.i.; FIG. 15 upper panel.
In a further assay the test system is HCoV-OC43. Put plainly: Virus titer of HCoV-OC43 in infected Vero E6 cells (viral plaque assay). The note with it: pretreated 1 hour with ferrostatin-1 40 μM or troglitazone 10 μM; m.o.i. 0.01; 1, 2, 3 d.p.i.; FIG. 15 lower panel.
The test system of the next assay is RD cells. Put plainly: Lipid peroxidation (BODIPY 581/591-C11, flow cytometry) in RSL3-treated RD cells pretreated with ferroptosis inhibitors. Background: In flow cytometry, cells or beads pass a laser one at a time.
The subject of assay [5] is RD-sgACSL4^+/+ and RD-sgACSL4^−/− cells. Put plainly: Lipid peroxidation (BODIPY 581/591-C11) in RSL3-treated RD-sgACSL4+/+ control and RD-sgACSL4−/− knockout cells. The note with it: 1 μM RSL3, 36 hours, FIG. 9 upper panel.
Description: Specifically, the RD-sgACSL4^−/− knockout and RD-sgACSL4^+/+ control cells were seeded in 12-well plates at a concentration of 1×10^5 cells per well.
Next, the treated cells and the infected cells were stained by incubating with 1 μM BODIPY™ 581/591-C11 (Invitrogen) at 37° C. for 30 minutes, and then collected using trypsin (Gibco). Thereafter, the stained cells were subjected to centrifugation at 300 g for 10 minutes to remove trypsin and the cell culture media, and then resuspended in 500 μL of fresh PBS. Subsequently, at least 10000 cells per sample were subjected to flow cytometry analysis using Attune NxT flow cytometer (Invitrogen), and FlowJo software was used for viewing and analyzing the thus obtained data. The BODIPY™ 581/591-C11 levels in the control groups (i.e., DMSO-treated cells and mock-infected cells) were set as 100%.

Turning to `CCOC(=O)c1ccc(NC2CCCCC2)c(N)c1` [ferrostatin-1], the “CV-A6-induced increase in lipid peroxidation level (relative BODIPY 581/591-C11 level)” value in the assay with CV-A6-infected RD cells is recorded as “significantly diminished”. In the assay with CV-A6 [1], the “Cell viability of CV-A6-infected RD cells” value is reported as “increasing cell viability”. Moreover, the “Cell viability of HCoV-229E-infected LLC-MK2 cells” value in the assay on HCoV-229E [2] is “increasing cell viability”. The “Viral yields (virus titer) of CV-A6 in infected RD cells vs DMSO control group” value with CV-A6 [3] is given as “significantly lower”. Also, the “Viral yields (virus titer) of HCoV-229E in infected LLC-MK2 cells vs DMSO control group” value in the assay on HCoV-229E [4] was “significantly lower”. The “Viral yields (virus titer) of HCoV-OC43 in infected Vero E6 cells vs DMSO control group” value in the assay on HCoV-OC43 is given as “significantly lower”. In addition, the “RSL3-induced increase in lipid peroxidation level (relative BODIPY 581/591-C11 level)” value with RD cells (wild-type RD cells pretreated 1 hour with ferrostatin-1 100 μM or troglitazone 20 μM, then 1 μM RSL3 for 36 hours, vs DMSO control, FIG. 11 upper panel) is given as “significantly diminished”.

With `COC(=O)c1ccc([C@@H]2c3[nH]c4ccccc4c3C[C@@H](C(=O)OC)N2C(=O)CCl)cc1` [RSL3], the “Induction of lipid peroxidation in cells with normal ACSL4 expression” value in assay [5] (RD-sgACSL4^+/+ control cells) is listed as “effectively induce lipid peroxidation”. Moreover, the “Induction of lipid peroxidation in ACSL4 knockout cells” value in assay [5] (RD-sgACSL4^−/− knockout cells) was “unable to induce lipid peroxidation”. Moreover, the “Lipid peroxidation level in RSL3-treated cells compared with DMSO-treated cells” value with RD cells (wild-type RD cells, 1 μM RSL3, 36 hours, FIG. 11) was “significant increase”.
